Results on 9 molecules are retold here after PMC8424300, “Identification of novel microtubule inhibitors effective in fission yeast and human cells and their effects on breast cancer cell lines” (Open Biology, 2021).

For orientation: IC50 means the midpoint of a concentration-inhibition curve.

The target in assay [1] is T1, porcine brain tubulin heterodimer (Sus scrofa, UniProt P02550+P02554).
T1 construct: highly purified porcine brain tubulin heterodimer; purchased Cytoskeleton T240 (kit BK011P); host or cells: porcine brain tissue
T1 sequence (P02554 whole entry): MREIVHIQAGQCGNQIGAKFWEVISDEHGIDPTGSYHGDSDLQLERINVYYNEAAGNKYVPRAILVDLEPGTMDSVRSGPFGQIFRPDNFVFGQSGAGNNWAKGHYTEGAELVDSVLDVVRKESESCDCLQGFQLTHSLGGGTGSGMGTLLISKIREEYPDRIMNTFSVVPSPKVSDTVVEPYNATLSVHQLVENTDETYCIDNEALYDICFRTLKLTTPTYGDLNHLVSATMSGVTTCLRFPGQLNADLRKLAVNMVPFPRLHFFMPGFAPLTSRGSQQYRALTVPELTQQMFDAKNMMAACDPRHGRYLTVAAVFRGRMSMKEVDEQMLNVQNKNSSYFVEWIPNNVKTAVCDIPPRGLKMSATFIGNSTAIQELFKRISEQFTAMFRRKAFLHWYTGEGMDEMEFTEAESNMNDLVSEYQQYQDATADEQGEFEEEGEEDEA
T1 sequence (P02550 whole entry): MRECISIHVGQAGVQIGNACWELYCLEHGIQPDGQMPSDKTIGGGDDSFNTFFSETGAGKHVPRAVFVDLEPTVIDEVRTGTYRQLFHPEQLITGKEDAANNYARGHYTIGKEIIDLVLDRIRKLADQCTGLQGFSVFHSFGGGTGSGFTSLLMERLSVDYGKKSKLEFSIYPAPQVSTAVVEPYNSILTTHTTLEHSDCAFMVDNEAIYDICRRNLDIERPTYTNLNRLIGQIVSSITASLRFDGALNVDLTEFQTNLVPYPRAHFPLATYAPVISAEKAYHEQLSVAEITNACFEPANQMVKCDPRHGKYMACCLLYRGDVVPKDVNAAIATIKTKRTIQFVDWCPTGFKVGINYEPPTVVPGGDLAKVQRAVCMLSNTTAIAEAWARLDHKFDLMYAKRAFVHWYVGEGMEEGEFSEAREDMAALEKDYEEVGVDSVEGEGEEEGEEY
Put plainly: In vitro tubulin polymerization assay. It is filed as biochemical. The settings on record: 37°C; for IC50: figure 3c, 1 h. As for the experimental part:
To determine whether the 12 compounds affected mitotic spindle organization by directly interfering with tubulin polymerization, we performed in vitro tubulin polymerization assays. […] Tubulin polymerization was monitored every 1 min by measuring fluorescence absorbance at 340 nm for 1 h.
Figure 3. […] Tubulin was incubated with 5 µM of the compounds and DMSO for 60 min at 37°C. The fluorescence increase was monitored every minute at 340 nm. […] (b). […] Nocodazole (NOC) was used as the control. (c). […] (d) The same experiment as (c) but carried out at a different time.
The Tubulin Polymerization HTS Assay Kit (Cytoskeleton, BK011P) was used according to the manufacturer's instructions. All components were added into a 96-well microtiter plate (Corning Costar, cat. no. 3686), then the tubulin reaction mixture was quickly added to the wells, and tubulin polymerization was initiated and monitored every 1 min at 37°C for 1 h by recording fluorescence of excitation wavelength at 340 nm and emission at 450 nm. The tubulin reaction mixture was composed of 80 mM PIPES (pH 6.9), and 1 mM MgCl2, 1 mM EGTA, 1 mM GTP and 2 mg ml^−1 of highly purified porcine brain tubulin heterodimer (Cytoskeleton, cat. no. T240).

For another assay, the system named is HeLa cells. Put plainly: Time-lapse live imaging of mitotic progression and cell fate in HeLa cells (H2B-mCherry, EGFP-α-tubulin). The format is cell-based, human. The conditions noted are these: for mitotic duration (prophase to cytokinesis): 24 h imaging, DMSO control 77 ± 6 min; for phenotype after mitotic arrest: 0.1 and 0.25 µM compound. As for the experimental part:
To determine whether these 34 compounds also induce mitotic abnormalities in human cells, a second screen of these compounds was conducted using HeLa cells. We used time-lapse microscopy to monitor mitotic progression in HeLa cells expressing mCherry-tagged histone H2B to mark chromatin, and EGFP-tagged α-tubulin to monitor microtubules over a 24 h time period in the presence of 2 µM of each of the 34 compounds. The duration of mitosis was determined by live-cell imaging, defined as the period from prophase to cytokinesis based on chromatin and microtubule morphologies (figure 2a). The control DMSO-treated cells progressed through mitosis with a mean mitotic duration of 77 ± 6 min. Among the 34 compounds we tested, nine caused a significant increase in mitotic duration in human cells (figure 2a), ranging from 122 ± 42 min (F15) to 720 ± 53 min (C16). […] As described in the Discussion, we have not carried out a detailed analysis for B8 in this study. To determine whether these cell deaths were caused by apoptosis, caspase activity was assayed for 24 h using time-lapse microscopy in the presence of the 12 compounds. Caspase 3 and Caspase 7 activities were observed 12–24 h after the addition of the compounds (electronic supplementary material, figure S1A). There were also other indications of apoptosis including the morphological chances reminiscing of membrane blebbing, chromatin condensation and cell explosion (electronic supplementary material, figure S1B). Caspase-mediated apoptosis induction is similar to the effects of mitotic arrest caused by anti-microtubule drugs in HeLa cells. […] We conclude that these 12 compounds cause mitotic arrest followed by cell death through apoptotic activation.
Figure 2. Effect of compounds on mitotic progression in HeLa cell (a). Duration of mitosis was analysed by live imaging of HeLa cells stably expressing H2B-mcherry (red) and EGFP-a tubulin (green) treated in the presence of 0.5 µM (K1, L1, J1) or 2 µM (C16, E2, O12, M2, I15, J3, I2, A15, F15) compound for 24 h and the time in mitosis was measured in 200 cells. DMSO-treated cells are shown, which served as the vehicle control. Show mean as ‘+’. (b). The Cell fate after mitosis (normal division, abnormal division or cell death) was quantitatively assessed after the mitotic arrest observed in (a). (c) Dose-dependent change of phenotypes after mitotic arrest with K1, L1 and J1.
For live-cell imaging experiments, 200 000 cells were seeded onto glass-bottom culture dishes (MatTek P35GC-1.5-14-C). Cells were grown overnight before the addition of the compound, and the culture media was replaced with fresh media lacking phenol red to limit phototoxicity before imaging.
Live-cell imaging was performed in a LCV110 U VivaView FL incubator microscope (Olympus) equipped with an X-Cite-exacte illumination source (Excelitas Technologies) and Orca-R2 CCD camera (Hamamatsu Photonics). For screening, images were acquired with a 20 × objective every 15 min for 24–48 h in the differential interference contrast (DIC), m-cherry and GFP channels. For assessment of apoptosis, the cells were monitored every 15 min for 24 h. Individual cells were manually analysed using the CellCognition browser.

Another assay has as its system WTβIII HeLa cell line. Put plainly: Cell viability in HeLa cell line overexpressing wild-type βIII tubulin. It is filed as cell-based. The conditions noted are these: Homo sapiens. As for the experimental part: One of the main mechanisms of drug resistance is due to the overexpression of class III β tubulin. […] The ability of L1 to overcome β III tubulin-mediated multidrug resistance was evaluated in two HeLa isogenic cell lines.
Figure 7.
(§1) Cells were plated in 384-well plates at a density of 800 cells per well in 22.5 µl of media. After 24 h, 2.5 µl drug was diluted in media and was added to each well. Following 5 days of incubation, viability was assessed using CellTiter-Glo (Promega) according to the manufacture's protocol. Luminescence in each well was measured using a Synergy Neo2 plate reader (BioTek).

Assay [2] concerns BT549, CAL51 and MB-157 breast cancer cell lines. Put plainly: Viability dose-response in breast cancer cell lines. The format is cell-based. The settings on record: Homo sapiens, 96 h; range over the breast cell lines and the non-cancer cell line MCF-10A; 4 days of treatment. As for the experimental part:
The sensitivity of the inhibitors L1, J3, A15 and M2 were evaluated in three breast cancer cell lines, (BT549, CAL51 and MB-157) and a non-cancer cell line from the human mammary gland, MCF-10A (figure 8). Drug sensitivity was determined by culturing breast cancer cell lines (black lines) and the non-cancer cell line (red line) with a range of concentrations of each compound, and viability was measured after 4 days of treatment in triplicate.
Figure 8. Dose–response curves in three cancer cell lines (BT549, CAL51 and MB-157) are shown in black and non-cancer cell line; MCF-10A is shown in red. They were subjected to a dose–response matrix of the tubulin inhibitor, L1, A15, M2 and J3, respectively. Viability relative to the vehicle control was measured […] after treatment. Mean ± s.e.m. for n = 3 experiments is shown.
as §1

For a further assay, the system named is MDR-sup fission yeast. Put plainly: Phenotypic assay of microtubule organization in MDR-sup strain expressing GFP-atb2. The format is cell-based, Schizosaccharomyces pombe. The settings on record: same phenotype = no interphase microtubules or mitotic spindles detectable, tubulin in nucleus; figure S2. As for the experimental part:
We have previously screened a collection of 10 371 small molecules to identify compounds that inhibit the growth of a multiple-drug-sensitive fission yeast strain (MDR-sup). We selected 248 compounds (2.4% of the total) that inhibited fission yeast cell growth rate by at least 50% (figure 1a) and subsequently conducted a phenotypic screen of these to identify drugs that affect microtubule organization (figure 1b). After the MDR-sup cells were treated with 5 µM of each compound for 3 h, microtubules were monitored using GFP tagged α-tubulin Atb2 and live-cell fluorescence microscopy. In untreated interphase cells, microtubules form long cytoplasmic arrays that run parallel to the long cellular axis, and in mitotic cells, microtubules form a bipolar spindle in the nucleus and the cytoplasmic microtubules disappear (figure 1c(i), arrow). […] This screen identified 34 compounds that induced cytological phenotypes indicative of defects in microtubule organization or function.
Figure 1. Phenotypic screening in MDR-sup fission yeast (a). Growth assay screening using MDR-sup strain. The optical density was measured with 20 µM of each compound and 248 compounds that gave at least 50% growth inhibition were used for further phenotyping marked by the red lines. Growth was normalized to DMSO-treated cells. (b) Schematic representation of the screening workflow. (c) Examples of the phenotypic assay using L1, P2 and B8 in the MDR-sup strain expressing GFP-atb2 (tubulin) are shown. Cells were incubated in 5 µM compound for 3 h and atb2 signals were detected in living cells. (i) Cells in absence of any compound. In interphase cells, α-tubulin Atb2 protein was detected in the nucleus and interphase microtubules, while mitotic spindles were detected in mitotic cells (arrows). (ii) In the presence of L1, microtubules were depolymerized and tubulin signals were detected distributed throughout the nucleus. (iii) In the presence of P2, short spindles were detected but anaphase spindles were not. (iv) In the presence of B8, interphase microtubules were not detected, while, dots were detected. […]

The test system of another assay is CAL51 cells. Put plainly: Clonogenic (colony-forming) assay. It is filed as cell-based, human. The conditions noted are these: 0.1 nM BI2536 alone, 12 h exposure, 9 days growth. As for the experimental part:
Finally, a clonogenic assay was used to further evaluate the synergy effects between the L1 and Plk1 inhibitors to inhibit colony formation of breast cancer CAL51 cells after a 12 h drug exposure. The percentages of colony formation of cells treated with 0.1 nM BI2536 alone and 0.5 µM L1 alone were 89% and 67%, respectively, while cells treated with both 0.1 nM BI2536 and 0.5 µM L1 together were 2% (figure 10) indicating strong synergetic effects in colony formation.
Figure 10. Quantification of the colony formation experiments (n = 3) after a 12 h exposure. CAL51 cells were treated with vehicle control, 0.1 nM BI2536, 0.5 µM L1 or 0.1 nM BI2536 and 0.5 µM L1 for 12 h. Cells were grown for 9 days in fresh media after 12 h exposure. Mean ± s.e.m. (n = 3) is shown.
CAL51 cells were plated at a density of 200 cells per 60 mm tissue culture dish. After 24 h, they were treated with vehicle (DMSO), 0.1 nM BI2538, 0.5 µM L1 or the combination of 0.1 nM BI2538 and 0.5 µM L1, respectively, for 12 h. After an exposure, the cells were washed with warm sterile PBS, and incubated for additional 9 days in fresh media. After the incubation, cells were fixed and stained with a 20% MeOH: 0.01% crystal violet solution for 30 min. Colonies were counted using a stereomicroscope in three independent experiments.

Where [3] appears, read: read-out: IC50 of tubulin polymerization.

Like-named read-outs stand apart in the source and are kept apart here.

As to `CC(C)(C)C#C/C=N/n1nnc(-c2ccccc2)n1` [F15], the “effect on in vitro tubulin polymerization” value in assay [1] (5 µM compound, 60 min) is listed as “no observable effects on polymerization”. The “mitotic duration (prophase to cytokinesis)” value in the assay on HeLa cells (2 µM compound) was 122 ± 42 min.

For `Nc1nn(S(=O)(=O)c2c(F)c(F)c(F)c(F)c2F)cc1-c1ccc(Cl)cc1` [C16], the “mitotic duration (prophase to cytokinesis)” value with HeLa cells (2 µM compound) amounted to 720 ± 53 min.

For `CC(=O)O[C@H]1C(=O)[C@@]2(C)[C@H]([C@H](OC(=O)c3ccccc3)[C@]3(O)C[C@H](OC(=O)[C@H](O)[C@@H](NC(=O)c4ccccc4)c4ccccc4)C(C)=C1C3(C)C)[C@]1(OC(C)=O)CO[C@@H]1C[C@@H]2O` [paclitaxel], the 50% inhibitory concentration (IC50) with WTβIII HeLa cell line is 0.0056 µM.

As for `O=[N+]([O-])C1=Cc2ccccc2OC1c1ccc2c(c1)OCO2` (centres unmarked) [K1], in assay [1] (setting [3]), the IC50 came to 0.59 µM. Also, the cell fate entry in the assay on HeLa cells (0.5 µM compound) is on record as “arrested cells initially in mitosis, followed by cell death”; with HeLa cells (2 µM compound) it was “immediately induced cell death independent of the phase of the cell cycle”. Besides, in the assay with HeLa cells, the “phenotype after mitotic arrest” value is reported as “abnormal multipolar, asymmetric cell divisions, generating 3–4 daughter cells”.

Turning to `COc1ccc(C2Oc3ccc4ccccc4c3C=C2[N+](=O)[O-])cc1OC` (centres unmarked) [J1], the cell fate entry in the assay with HeLa cells (0.5 µM compound) is listed as “arrested cells initially in mitosis, followed by cell death”; in the assay on HeLa cells (2 µM compound), “immediately induced cell death independent of the phase of the cell cycle”. Further, the “phenotype after mitotic arrest” value in the assay on HeLa cells is “abnormal multipolar, asymmetric cell divisions, generating 3–4 daughter cells”.

In the case of `N#CCCS(=O)(=O)c1nnnn1-c1ccccc1` [M2], the half-inhibitory concentration (IC50) is 1.4 to 1.9 µM in assay [2] and 0.22 µM in assay [1] (setting [3]).

As for `CCCCNC(=O)n1c(NC(=O)OC)nc2ccccc21` [benomyl], in the assay with MDR-sup fission yeast, the “microtubule phenotype with known inhibitors of microtubule polymerization” value was “same phenotype”.

For the molecule `CC[C@@H]1C(=O)N(C)c2cnc(Nc3ccc(C(=O)NC4CCN(C)CC4)cc3OC)nc2N1C1CCCC1` [BI2536, reference compound], in the assay with CAL51 cells, the “percentage of colony formation” value stood at 89%.

For the molecule `COC(=O)Nc1nc2ccc(C(=O)c3cccs3)cc2[nH]1` [NOC, nocodazole, reference compound], in the assay with MDR-sup fission yeast, the “microtubule phenotype with known inhibitors of microtubule polymerization” value is on record as “same phenotype”. Further, it took 0.56 µM to reach half-maximal inhibition in assay [1] (IC50 of tubulin polymerization) (IC50).
